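Values below derive from 48-hour exposures of cells grown in 96-well plates, with endpoints linearly interpolated between the two concentrations bracketing the appropriate inhibition level. GI50 is the concentration that inhibits growth by half. TGI is the concentration that stops growth completely.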
What was measured:
Assay in all cases: NCI tumour cell line growth inhibition, 48 h
[1] = system: NCI-H522 lung
[2] = system: UACC-257 melanoma
[3] = system: LOX IMVI melanoma
[4] = system: SW-620 colon
[5] = system: A498 renal
[6] = system: MDA-MB-435
[7] = system: OVCAR-3 ovarian
[8] = system: OVCAR-5 ovarian
[9] = system: MALME-3M melanoma
[10] = system: 786-0 renal
[11] = system: SNB-75 CNS
[12] = system: SK-MEL-28 melanoma
[13] = system: KM12 colon
[14] = system: SK-OV-3 ovarian
[15] = system: HCT-116 colon
[16] = system: RPMI-8226 leukemia
[17] = system: T-47D breast
[18] = system: HT29 colon
[19] = system: SK-MEL-2 melanoma
[20] = system: CCRF-CEM leukemia
[21] = system: NCI-H460 lung
[22] = system: SF-268 CNS
[23] = system: SF-295 CNS
[24] = system: HL-60(TB) leukemia
[25] = system: TK-10 renal
[26] = system: K-562 leukemia
[27] = system: SK-MEL-5 melanoma
[28] = system: MOLT-4 leukemia
[29] = system: SF-539 CNS
[30] = system: HCT-15 colon
[31] = system: HOP-62 NSCLC
[32] = system: DU-145 prostate
[33] = system: PC-3 prostate
[34] = system: NCI-H226 lung
[35] = system: ACHN renal
[36] = system: UO-31 renal
[37] = system: BT-549 breast
[38] = system: RXF 393 renal
[39] = system: COLO 205 colon
[40] = system: A549 NSCLC
[41] = system: CAKI-1 renal
[42] = system: HOP-92 NSCLC
[43] = system: NCI/ADR-RES ovarian
[44] = system: EKVX NSCLC
[45] = system: HS 578T breast
[46] = system: U251 CNS
[47] = system: MDA-MB-231 breast
[48] = system: OVCAR-4 ovarian
[49] = system: SNB-19 CNS
[50] = system: NCI-H23 lung
[51] = system: M14 melanoma
[52] = system: SN12C renal
[53] = system: MCF7 breast
[54] = system: UACC-62 melanoma
[55] = system: SR leukemia
[56] = system: IGROV1 ovarian
[57] = system: HCC-2998 colon
[58] = system: OVCAR-8 ovarian

Structure (SMILES): C=CCC1(O)c2cccc(NCCO)c2C(=O)c2c(NCCO)cccc21
- GI50 [1]: > 100 µM
- TGI [1]: > 100 µM
- GI50 [2]: > 100 µM
- TGI [2]: > 100 µM
- GI50 [3]: > 100 µM
- TGI [3]: > 100 µM
- GI50 [4]: > 100 µM
- TGI [4]: > 100 µM
- GI50 [5]: > 100 µM
- TGI [5]: > 100 µM
- GI50 [6]: > 100 µM
- TGI [6]: > 100 µM
- GI50 [7]: > 100 µM
- TGI [7]: > 100 µM
- GI50 [8]: > 100 µM
- TGI [8]: > 100 µM
- GI50 [9]: > 100 µM
- TGI [9]: > 100 µM
- GI50 [10]: > 100 µM
- TGI [10]: > 100 µM
- GI50 [11]: 75.3 µM
- TGI [11]: > 100 µM
- GI50 [12]: > 100 µM
- TGI [12]: > 100 µM
- GI50 [13]: > 100 µM
- TGI [13]: > 100 µM
- GI50 [14]: > 100 µM
- TGI [14]: > 100 µM
- GI50 [15]: > 100 µM
- TGI [15]: > 100 µM
- GI50 [16]: > 100 µM
- TGI [16]: > 100 µM
- GI50 [17]: > 100 µM
- TGI [17]: > 100 µM
- GI50 [18]: > 100 µM
- TGI [18]: > 100 µM
- GI50 [19]: > 100 µM
- TGI [19]: > 100 µM
- GI50 [20]: > 100 µM
- TGI [20]: > 100 µM
- GI50 [21]: > 100 µM
- TGI [21]: > 100 µM
- GI50 [22]: > 100 µM
- TGI [22]: > 100 µM
- GI50 [23]: > 100 µM
- TGI [23]: > 100 µM
- GI50 [24]: > 100 µM
- TGI [24]: > 100 µM
- GI50 [25]: > 100 µM
- TGI [25]: > 100 µM
- GI50 [26]: > 100 µM
- TGI [26]: > 100 µM
- GI50 [27]: > 100 µM
- TGI [27]: > 100 µM
- GI50 [28]: > 100 µM
- TGI [28]: > 100 µM
- GI50 [29]: > 100 µM
- TGI [29]: > 100 µM
- GI50 [30]: > 100 µM
- TGI [30]: > 100 µM
- GI50 [31]: > 100 µM
- TGI [31]: > 100 µM
- GI50 [32]: > 100 µM
- TGI [32]: > 100 µM
- GI50 [33]: > 100 µM
- TGI [33]: > 100 µM
- GI50 [34]: > 100 µM
- TGI [34]: > 100 µM
- GI50 [35]: > 100 µM
- TGI [35]: > 100 µM
- GI50 [36]: 95.7 µM
- TGI [36]: > 100 µM
- GI50 [37]: > 100 µM
- TGI [37]: > 100 µM
- GI50 [38]: > 100 µM
- TGI [38]: > 100 µM
- GI50 [39]: > 100 µM
- TGI [39]: > 100 µM
- GI50 [40]: > 100 µM
- TGI [40]: > 100 µM
- GI50 [41]: > 100 µM
- TGI [41]: > 100 µM
- GI50 [42]: 80.7 µM
- TGI [42]: > 100 µM
- GI50 [43]: > 100 µM
- TGI [43]: > 100 µM
- GI50 [44]: > 100 µM
- TGI [44]: > 100 µM
- GI50 [45]: > 100 µM
- TGI [45]: > 100 µM
- GI50 [46]: > 100 µM
- TGI [46]: > 100 µM
- GI50 [47]: > 100 µM
- TGI [47]: > 100 µM
- GI50 [48]: > 100 µM
- TGI [48]: > 100 µM
- GI50 [49]: > 100 µM
- TGI [49]: > 100 µM
- GI50 [50]: > 100 µM
- TGI [50]: > 100 µM
- GI50 [51]: > 100 µM
- TGI [51]: > 100 µM
- GI50 [52]: > 100 µM
- TGI [52]: > 100 µM
- GI50 [53]: > 100 µM
- TGI [53]: > 100 µM
- GI50 [54]: > 100 µM
- TGI [54]: > 100 µM
- GI50 [55]: > 100 µM
- TGI [55]: > 100 µM
- GI50 [56]: > 100 µM
- TGI [56]: > 100 µM
- GI50 [57]: > 100 µM
- TGI [57]: > 100 µM
- GI50 [58]: > 100 µM
- TGI [58]: > 100 µM

From PubChem BioAssay (NCI)
